In patent publication US12115208B2, “Small-molecule adjuvants for antibiotics to address antibiotic resistance” (HIGH POINT UNIVERSITY, priority 2017, dated 2024):

Tests used:
[1] = system: S. aureus USA100 pre-formed biofilm; assay: Biofilm dispersion assay; type: cell-based; conditions: Staphylococcus aureus, S. aureus USA100 (MRSA)
Experimental: (§1) Overnight cultures of S. aureus or S. epidermidis were subcultured to an OD600 of 0.01 in tryptic soy broth supplemented with 0.5% glucose (TSBG). For USA300Δ/+stk1, TSBG was supplemented with 0.2% xylose to induce transcription of stk1. 100 μl of the culture was distributed into rows 2-11 of a 96-well polyvinylchloride plate. Rows 1 and 12 were filled with 100 μl of sterile water and served as the negative controls. […] After the incubation period, the media was discarded and the plates were washed with water to remove non-adherent cells. Media containing the desired concentrations of compound was prepared and 100 μl was added to the desired rows. Media alone was added as a positive control and sterile water was added as a negative control. The plates were sealed with Glad Press-n-Seal and incubated under stationary conditions for another 24 hours. The media was discarded and plates were washed with water to remove any non-adherent bacteria. 110 μl of an aqueous crystal violet solution (0.1%) was added to each well and allowed to rest at room temperature to stain any biomass. After 30 minutes, the crystal violet solution was discarded and the plates were washed with water. The stained biomass was dissolved in 95% ethanol (200 μl) for 30 minutes and 125 μl was transferred to the corresponding wells of a flat-bottomed polystyrene 96-well plate. The absorbance of each well was measured at 540 nm. The wells that contained only water were used as background and subtracted from wells containing cultures.
(§2) Biofilm dispersion was quantified by calculating the ratio of the absorbance of the treated wells as compared to the untreated wells. These values were plotted and fit to a curve to determine the EC50.
(§3) Loratadine was also tested for the ability to disperse pre-formed biofilms. Biofilm dispersion is reported as an EC50, which is defined as the concentration of compound required to disperse 50% of the preformed biofilm.

[2] = system: S. aureus 43300 pre-formed biofilm; assay: Biofilm dispersion assay; type: cell-based; conditions: Staphylococcus aureus, S. aureus 43300 (MRSA)
Experimental: as §1, §2, §3

[3] = system: S. aureus USA300 pre-formed biofilm; assay: Biofilm dispersion assay; type: cell-based; conditions: Staphylococcus aureus, S. aureus USA300 (MRSA)
Experimental: as §1, §2, §3

[4] = system: S. aureus 29213 pre-formed biofilm; assay: Biofilm dispersion assay; type: cell-based; conditions: Staphylococcus aureus
Experimental: as §1, §2, §3

[5] = system: S. aureus 43300 (MRSA); assay: Antibiotic repotentiation (antibiotic MIC with/without compound); type: cell-based, Staphylococcus aureus; conditions: +50 μM compound
[6] = system: S. aureus USA300 (MRSA); assay: as above; type: cell-based, Staphylococcus aureus; conditions: +50 μM compound, S. aureus USA300 (MRSA)

**Q.** With `CCOC(=O)N1CCC(=C2c3ccc(Cl)cc3CCc3cccnc32)CC1` [Loratadine, ethyl 4-(8-chloro-5,6-dihydrobenzo[1,2]cyclohepta[2,4-b]pyridin-11-ylidene)piperidine-1-carboxylate] as the compound, how does the EC50 [1] read?
**A.** 121 µM

**Q.** What about the EC50 [2] of the same compound?
**A.** > 200 µM

**Q.** What about the EC50 [3] of the same compound?
**A.** > 200 µM

**Q.** And the EC50 [4]?
**A.** > 200 µM

**Q.** And the “Oxacillin MIC” value ([5]; S. aureus ATCC 43300 (MRSA))?
**A.** 1 µg/mL

**Q.** What about the “Fold Reduction” value ([5]; oxacillin MIC, S. aureus 43300 (MRSA)) of the same compound?
**A.** 32

**Q.** What about the “Oxacillin MIC” value [6] of the same compound?
**A.** 0.5 µg/mL

**Q.** What about the “Fold Reduction” value ([6]; oxacillin MIC) of the same compound?
**A.** 64
